Measurements reported in ChEMBL document CHEMBL4334526, “Synthesis of Peptoid-Based Class I-Selective Histone Deacetylase Inhibitors with Chemosensitizing Properties” (J Med Chem, 2019).

Assays:
[1] = target: T1, Class 1 histone deacetylase (Homo sapiens, UniProt Q13547+O15379+Q92769+Q9BY41)
Description: Inhibition of class 1 HDAC in human Cal27CisR cells assessed as potentiation of cisplatin-induced cytotoxicity by measuring combination index at 0.5 uM in presence of 10 uM cisplatin by MTT assay based Chou-Talalay analysis

Histone deacetylase [2] = test: Inhibition of HDAC in human A2780 cells using Boc-Lys(epsilon-Ac)-AMC as substrate preincubated for 18 hrs followed by substrate addition and measured after 3 hrs by fluorescence assay; type: cell-based
[3] = target: T2, Protein deacetylase HDAC6 (Homo sapiens, UniProt Q9UBN7); test: Inhibition of human full length N-terminal GST-tagged HDAC6 expressed in baculovirus infected Sf9 insect cells ZMAL as substrate incubated for 90 mins by fluorescence assay; type: cell-based
T2 sequence (Q9UBN7 whole entry): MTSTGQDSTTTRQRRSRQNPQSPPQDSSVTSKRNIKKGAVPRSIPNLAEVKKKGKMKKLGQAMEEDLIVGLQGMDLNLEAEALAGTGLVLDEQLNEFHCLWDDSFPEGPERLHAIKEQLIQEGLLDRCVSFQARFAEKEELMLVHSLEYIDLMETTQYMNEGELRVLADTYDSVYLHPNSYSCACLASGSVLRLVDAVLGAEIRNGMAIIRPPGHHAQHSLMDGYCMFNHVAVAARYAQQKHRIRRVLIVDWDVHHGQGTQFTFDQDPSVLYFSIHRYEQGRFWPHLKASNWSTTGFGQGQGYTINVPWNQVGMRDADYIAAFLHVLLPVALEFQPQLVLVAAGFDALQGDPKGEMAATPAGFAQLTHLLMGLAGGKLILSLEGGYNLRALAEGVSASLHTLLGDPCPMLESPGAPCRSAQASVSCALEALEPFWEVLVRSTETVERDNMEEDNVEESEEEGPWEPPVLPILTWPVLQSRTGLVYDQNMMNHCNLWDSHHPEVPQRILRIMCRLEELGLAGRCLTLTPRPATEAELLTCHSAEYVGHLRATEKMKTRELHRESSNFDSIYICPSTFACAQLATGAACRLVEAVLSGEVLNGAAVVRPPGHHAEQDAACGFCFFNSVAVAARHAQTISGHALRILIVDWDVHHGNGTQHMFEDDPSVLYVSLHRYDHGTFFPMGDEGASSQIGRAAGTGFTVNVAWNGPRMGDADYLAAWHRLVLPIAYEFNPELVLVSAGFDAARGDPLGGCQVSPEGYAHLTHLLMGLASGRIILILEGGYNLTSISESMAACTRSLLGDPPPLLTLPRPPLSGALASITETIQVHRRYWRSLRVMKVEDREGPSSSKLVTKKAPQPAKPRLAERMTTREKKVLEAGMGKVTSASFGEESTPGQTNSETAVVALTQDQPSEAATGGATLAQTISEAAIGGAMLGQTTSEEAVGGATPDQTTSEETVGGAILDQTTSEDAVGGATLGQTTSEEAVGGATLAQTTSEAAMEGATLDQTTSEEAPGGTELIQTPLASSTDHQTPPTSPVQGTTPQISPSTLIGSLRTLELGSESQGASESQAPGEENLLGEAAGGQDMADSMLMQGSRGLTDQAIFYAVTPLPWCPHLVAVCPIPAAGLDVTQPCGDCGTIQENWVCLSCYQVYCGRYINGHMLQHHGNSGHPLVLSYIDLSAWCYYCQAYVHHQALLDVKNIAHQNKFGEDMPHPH

Histone deacetylase 1 = Histone deacetylase 1 (Homo sapiens, UniProt Q13547); test: Inhibition of recombinant human full length C-terminal His/FLAG-tagged HDAC1 expressed in baculovirus infected Sf9 insect cells using ZMAL as substrate incubated for 90 mins by fluorescence assay
[4] = target: T1, Class 1 histone deacetylase; test: Inhibition of class 1 HDAC in human CAL27 cells assessed as potentiation of cisplatin-induced cytotoxicity by measuring combination index at 1 uM in presence of […] cisplatin by MTT assay based Chou-Talalay analysis; type: cell-based; conditions: CAL-27
Histone deacetylase 8 = target: T3, Histone deacetylase 8 (Homo sapiens, UniProt Q9BY41); test: Inhibition of recombinant human C-terminal His-fusion tagged/N-terminal Strep-2 tagged HDAC8 (1 to 377 residues) expressed in insect cells using Boc-Lys(TFa)-AMC as substrate preincubated for 5 mins followed by substrate addition measured after 90 mins by fluorescence assay
T3 sequence (Q9BY41 whole entry): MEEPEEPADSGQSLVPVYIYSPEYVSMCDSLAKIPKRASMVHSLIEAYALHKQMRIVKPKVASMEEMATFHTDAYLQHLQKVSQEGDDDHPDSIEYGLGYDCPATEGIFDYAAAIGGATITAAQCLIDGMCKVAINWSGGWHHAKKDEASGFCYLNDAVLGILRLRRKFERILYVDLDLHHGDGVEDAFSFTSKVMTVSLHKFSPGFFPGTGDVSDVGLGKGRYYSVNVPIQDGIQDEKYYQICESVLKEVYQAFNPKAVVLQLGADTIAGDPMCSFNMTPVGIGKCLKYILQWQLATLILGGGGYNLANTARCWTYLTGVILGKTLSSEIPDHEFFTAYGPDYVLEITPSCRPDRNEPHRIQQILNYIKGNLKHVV

[5] = target: T1, Class 1 histone deacetylase; remark: listed apart in the source
Description: Inhibition of class 1 HDAC in human Cal27CisR cells assessed as potentiation of cisplatin-induced cytotoxicity by measuring combination index at 0.5 uM in presence of 100 uM cisplatin by MTT assay based Chou-Talalay analysis

CAL-27 = test: Cytotoxicity against human CAL27 cells assessed as reduction in cell survival measured after 72 hrs by MTT assay; type: functional, cell-based; conditions: CAL-27, 72 h
[6] = target: T1, Class 1 histone deacetylase; test: Inhibition of class 1 HDAC in human Cal27CisR cells assessed as potentiation of cisplatin-induced cytotoxicity by measuring combination index at 1 uM in presence of 32 uM cisplatin by MTT assay based Chou-Talalay analysis; type: cell-based
Histone deacetylase 4 = Histone deacetylase 4 (Homo sapiens, UniProt P56524); test: Inhibition of recombinant human N-terminal GST-fused and C-terminal His-tagged HDAC4 (627 to 1084 residues) expressed in baculovirus infected insect cells using Boc-Lys(TFa)-AMC as substrate preincubated for 5 mins followed by substrate addition and measured after 90 mins by fluorescence assay
[7] = target: T1, Class 1 histone deacetylase; test: Inhibition of class 1 HDAC in human Cal27CisR cells assessed as potentiation of cisplatin-induced cytotoxicity by measuring combination index at […] in presence of 1 uM cisplatin by MTT assay based Chou-Talalay analysis; type: cell-based
Histone deacetylase [8] = test: Inhibition of HDAC in human CAL27 cells using Boc-Lys(epsilon-Ac)-AMC as substrate preincubated for 18 hrs followed by substrate addition and measured after 3 hrs by fluorescence assay; type: cell-based
[9] = target: T1, Class 1 histone deacetylase; test: Inhibition of class 1 HDAC in human CAL27 cells assessed as potentiation of cisplatin-induced cytotoxicity by measuring combination index at 1 uM in presence of 0.10 uM cisplatin by MTT assay based Chou-Talalay analysis; type: cell-based; conditions: CAL-27
[10] = target: T1, Class 1 histone deacetylase; conditions: CAL-27
Description: Inhibition of class 1 HDAC in human CAL27 cells assessed as potentiation of cisplatin-induced cytotoxicity by measuring combination index at 0.5 uM in presence of 1 uM cisplatin by MTT assay based Chou-Talalay analysis

[11] = target: T1, Class 1 histone deacetylase; test: Inhibition of class 1 HDAC in human CAL27 cells assessed as potentiation of cisplatin-induced cytotoxicity by measuring combination index at […] in presence of 0.1 uM cisplatin by MTT assay based Chou-Talalay analysis; type: cell-based; conditions: CAL-27

Histone deacetylase 1, sequence (Q13547 whole entry): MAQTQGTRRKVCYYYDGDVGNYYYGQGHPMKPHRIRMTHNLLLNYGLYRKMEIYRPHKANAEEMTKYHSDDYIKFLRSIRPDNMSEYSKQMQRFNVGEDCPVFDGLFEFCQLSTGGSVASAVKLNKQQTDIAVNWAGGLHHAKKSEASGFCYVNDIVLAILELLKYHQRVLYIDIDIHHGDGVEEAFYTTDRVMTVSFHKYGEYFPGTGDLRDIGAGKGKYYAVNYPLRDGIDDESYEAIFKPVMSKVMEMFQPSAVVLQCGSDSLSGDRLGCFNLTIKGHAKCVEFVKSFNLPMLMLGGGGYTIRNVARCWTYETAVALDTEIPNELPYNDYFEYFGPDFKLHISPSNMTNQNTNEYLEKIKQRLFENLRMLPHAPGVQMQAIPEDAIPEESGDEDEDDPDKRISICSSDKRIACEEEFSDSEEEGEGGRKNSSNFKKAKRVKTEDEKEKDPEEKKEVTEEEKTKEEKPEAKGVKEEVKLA
T1 sequence (O15379 whole entry, looked up, one chain of several): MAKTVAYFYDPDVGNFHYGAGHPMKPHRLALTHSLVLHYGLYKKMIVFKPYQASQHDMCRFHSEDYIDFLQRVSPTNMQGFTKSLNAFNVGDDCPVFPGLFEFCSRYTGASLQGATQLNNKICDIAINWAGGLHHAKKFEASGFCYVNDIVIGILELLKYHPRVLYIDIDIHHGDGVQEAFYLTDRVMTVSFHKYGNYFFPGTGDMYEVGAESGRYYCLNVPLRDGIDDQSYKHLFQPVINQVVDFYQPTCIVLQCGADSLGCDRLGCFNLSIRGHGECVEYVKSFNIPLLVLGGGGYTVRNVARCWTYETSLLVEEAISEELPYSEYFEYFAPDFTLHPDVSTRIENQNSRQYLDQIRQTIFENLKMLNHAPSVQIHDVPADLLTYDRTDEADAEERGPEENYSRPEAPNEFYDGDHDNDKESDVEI
T1 sequence (Q13547 whole entry, looked up, one chain of several): as the sequence (Q13547 whole entry) above
T1 sequence (Q92769 whole entry, looked up, one chain of several): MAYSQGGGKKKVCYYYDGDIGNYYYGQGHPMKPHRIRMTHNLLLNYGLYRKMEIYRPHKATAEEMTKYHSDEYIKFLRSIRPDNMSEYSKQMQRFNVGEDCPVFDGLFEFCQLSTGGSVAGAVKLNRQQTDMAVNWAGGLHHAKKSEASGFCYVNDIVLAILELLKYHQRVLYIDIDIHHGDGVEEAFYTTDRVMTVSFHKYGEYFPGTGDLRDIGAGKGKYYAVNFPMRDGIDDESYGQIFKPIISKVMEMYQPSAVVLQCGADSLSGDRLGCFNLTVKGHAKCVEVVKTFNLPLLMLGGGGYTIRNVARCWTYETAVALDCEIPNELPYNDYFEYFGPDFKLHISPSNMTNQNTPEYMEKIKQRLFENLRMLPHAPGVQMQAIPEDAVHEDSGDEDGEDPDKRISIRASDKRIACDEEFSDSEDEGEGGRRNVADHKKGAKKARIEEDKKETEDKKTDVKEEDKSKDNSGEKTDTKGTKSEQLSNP
Histone deacetylase 4, sequence (P56524 whole entry, the tested form may be a part): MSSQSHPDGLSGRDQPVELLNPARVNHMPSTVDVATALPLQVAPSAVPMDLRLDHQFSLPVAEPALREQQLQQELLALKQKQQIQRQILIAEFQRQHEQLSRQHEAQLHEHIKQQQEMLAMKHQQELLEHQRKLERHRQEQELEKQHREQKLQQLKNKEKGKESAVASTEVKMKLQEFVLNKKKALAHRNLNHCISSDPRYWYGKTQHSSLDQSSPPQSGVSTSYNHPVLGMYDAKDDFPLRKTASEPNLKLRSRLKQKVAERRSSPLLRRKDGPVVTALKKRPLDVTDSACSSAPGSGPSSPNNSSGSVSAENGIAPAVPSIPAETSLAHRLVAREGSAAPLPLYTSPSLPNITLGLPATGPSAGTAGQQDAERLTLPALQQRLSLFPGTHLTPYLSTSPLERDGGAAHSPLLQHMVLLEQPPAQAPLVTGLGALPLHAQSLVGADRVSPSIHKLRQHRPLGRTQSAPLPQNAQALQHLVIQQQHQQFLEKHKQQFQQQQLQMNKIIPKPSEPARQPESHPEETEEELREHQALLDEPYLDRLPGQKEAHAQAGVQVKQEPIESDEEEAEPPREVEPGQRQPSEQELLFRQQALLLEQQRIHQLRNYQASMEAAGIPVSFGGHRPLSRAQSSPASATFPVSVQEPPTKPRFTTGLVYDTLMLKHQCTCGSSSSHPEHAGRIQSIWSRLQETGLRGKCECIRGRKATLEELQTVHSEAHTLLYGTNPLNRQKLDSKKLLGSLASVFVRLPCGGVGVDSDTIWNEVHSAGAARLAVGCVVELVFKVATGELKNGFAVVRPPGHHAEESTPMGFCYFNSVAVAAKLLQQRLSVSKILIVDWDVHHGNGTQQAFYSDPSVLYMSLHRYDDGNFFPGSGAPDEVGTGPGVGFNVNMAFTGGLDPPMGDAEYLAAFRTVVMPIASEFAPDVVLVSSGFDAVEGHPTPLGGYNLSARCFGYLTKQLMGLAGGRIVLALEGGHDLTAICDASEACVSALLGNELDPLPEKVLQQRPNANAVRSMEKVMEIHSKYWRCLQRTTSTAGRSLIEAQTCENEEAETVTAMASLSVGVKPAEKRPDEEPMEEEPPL

| IC50 (Histone deacetylase [2]) | IC50 [3] | IC50 (Histone deacetylase 1) | IC50 (Histone deacetylase 8) | IC50 (Histone deacetylase 4) | IC50 (Histone deacetylase [8]) | SMILES | CI [1] | CI [4] | CI [5] | IC50 (CAL-27) | CI [6] | CI [7] | CI [9] | CI [10] | CI [11] |
| --- | --- | --- | --- | --- | --- | --- | --- | --- | --- | --- | --- | --- | --- | --- | --- |
| 0.48 µM | > 10 µM | 0.038 µM | 9.21 µM | > 10 µM | 0.11 µM | CN(C)c1ccc(C(=O)N(CC(=O)NCc2ccccc2)Cc2ccc(C(=O)Nc3ccccc3N)cc2)cc1 | 0.12 |  | 0.07 | 1.6 µM |  |  |  | 0.16 |  |
| 1.43 µM | > 10 µM | 0.057 µM | > 10 µM | > 10 µM | 0.47 µM | Cc1cc(C)cc(C(=O)N(CCCCCC(=O)Nc2cc(-c3ccccc3)ccc2N)CC(=O)NCc2ccccc2)c1 |  | < 0.2 |  | 18.9 µM | < 0.2 | < 0.2 | < 0.2 |  | < 0.2 |

| SMILES | IC50 (Histone deacetylase [2]) | IC50 [3] | IC50 (Histone deacetylase 1) | IC50 (Histone deacetylase 8) | IC50 (Histone deacetylase 4) | IC50 (Histone deacetylase [8]) | CI [1] | CI [4] | CI [5] | IC50 (CAL-27) | CI [6] | CI [7] | CI [9] | CI [10] | CI [11] |
| --- | --- | --- | --- | --- | --- | --- | --- | --- | --- | --- | --- | --- | --- | --- | --- |
| Cc1cc(C)cc(C(=O)N(CC(=O)NCc2ccccc2)Cc2ccc(C(=O)Nc3cc(-c4ccccc4)ccc3N)cc2)c1 | 1.72 µM | > 10 µM | 0.051 µM | 3.13 µM | > 10 µM | 0.63 µM | 0.76 | 0.2 | 0.1 | 8.9 µM | 0.27 | < 0.2 | 0.42 | 0.59 | 0.39 |
